Laboratory results published in patent US6492344B1, “Syndecan enhancer element and syndecan stimulation of cellular differentiation” (Biotie Therapies Corp., priority 1993, dated 2002).
“Also recorded” adds a separate entry of the source.

Key:
[1] = test system: syndecan-1 enhancer element (pXb6); assay: CAT reporter assay of syndecan upstream fragment pXb6 in 3T3 NIH cells; type: cell-based, mouse; conditions: 3T3NIH cells transiently transfected; FGF-2 alone
Text: Determination of Mouse Syndecan Promoter and Enhancer Activities. The mouse syndecan-1 gene has been cloned and characterized up to −10 kbs upstream from the transcription start site. To determine the specific activities of different proximal promoter regions (up to −2 kbs from the start site) and enhancer regions (from −2 to −10 kbs) we have made plasmid constructs in which these regions were cloned into pCAT basic or pCAT promoter vectors, containing the CAT reporter gene. The reporter CAT gene produces the enzyme chloramphenicol acetyltransferase, which transfers the n-butyryl moiety of n-butyryl CoA to chloramphenicol. […]
The plasmid constructs were transiently transfected into eukaryotic cells by calcium phosphate precipitation simultaneously with a β-Galactosidase expressing vector to determine transfection efficiency. […] This was incubated from 2 hours to overnight and the color reaction was measured spectrophotometrically at 420 nm.
CAT activity was determined by adding 0.25 M Tris buffer, 25 ng n-butyryl CoA and 0.0626 μCi of ^14C-chloramphenicol to the cytoplasmic extract. Samples were incubated overnight, extracted with xylene and the radioactivity present was measured by scintillation counting. CAT activity was corrected for transfection efficiency as determined by assays of β-galactosidase activity. […]

syndecan-1 gene = assay: Syndecan-1 mRNA quantification in 3T3NIH cells exposed to FGF-2; type: cell-based, mouse; conditions: 3T3NIH cells, 10 ng/ml FGF-2
Text: Northern Blot—RNA was isolated from 3T3 and NMuMG cells using 4 M guanidine isothiocyanate and CsCl density centrifugation (Chirgwin et al., Biochemistry 18:5294-5299 (1979)). RNA samples were size-separated on a 1% agarose formaldehyde gel, transferred to a GeneScreen Plus™ membrane (New England Nuclear) and hybridized with a multi-prime (Amersham) labeled partial cDNA clone for mouse syndecan (PM-4) (Saunders et al., J. Cell Biol. 108:1547-1556 (1989)). After hybridization, the membrane was washed in 2×SSC and 1.0% SDS at 65° C. (high stringency conditions). For rehybridization with glyceraldehyde-3-phosphate-dehydrogenase (GAPDH; Fort et al., Nucleic Acid Res. 13:1431-1442 (1985)), the bound PM-4 probe was removed as recommended by the manufacturer of the filter (NEN).
Following incubation with FGF-2, syndecan MRNA was isolated and quantified. Control incubations without FGF-2 were also performed. Syndecan mRNA was isolated and quantified […] FGF-2 treatment following 6, 12, and 24 hr incubations. The quantification of syndecan mRNA production can be seen in FIG. 11a. GAPDH mRNA was used as a loading control. […] The enhancement appears to be maximal at about 6 hrs of FGF-2 incubation, and decreases thereafter. In the Figure, two individual exposures for each time point are presented.

[2] = test system: FGF-inducible Response Element (FiRE); assay: FiRE / Syn Prom CAT reporter in MCA3D keratinocytes; type: cell-based; conditions: MCA3D mouse keratinocytes transfected with FiRE construct
Protocol: The cells used for proximal promoter constructs were 3T3 NIH, S115 (either hormone-treated or not) and nMuMG cells. For enhancer constructs we used 3T3 NIH cells grown in 2% CMS medium and MCA 3D cells grown in Ham's medium. 3T3 NIH cells were also used to test the effect of growth factors in 2% CMS medium with 10 ng/ml FGF-2 and 2ng/ml TGFβ-1. MCA 3D cells were used to test the effect of 10 ng/ml KGF.
FiRE is Induced Selectively by FGF-7 in Keratinocytes. The ability of FiRE to enhance transcription was tested in the mouse keratinocyte cell line MCA3D (Kuliz-Martin et al., Carcinogenesis 4:1367-1377 (1983)). MCA3D cells were transfected as described supra for mouse NIH3T3 cells. Following transfection, the cells were treated with fetal calf serum, PDGF, FGF-1, FGF-2, and FGF-7 as described supra for the NIH3T3 cells.

Substance: FGF-2: Basic fibroblast growth factor (FGF-2 or bFGF); recombinant human
- CAT gene expression from plasmid pXb6 [1]: increase in CAT gene expression
- time of maximal enhancement of syndecan mRNA (syndecan-1 gene): about 6 hrs
- syndecan mRNA expression (syndecan-1 gene; after 4 hrs): significantly enhanced (several fold)
- FiRE activation [2]: failed to activate FiRE; also recorded: only slightly activated FiRE
